Legend:
Settings in all cases: treatment: drug + dasatinib (fixed dose, not stated); 5 days
769-P [1] = assay: GI50 of drug in presence of dasatinib; higher = less potent
Description: (§1)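 Primary HTS combination arm: 8 RCC cell lines treated with 8 doses (up to 10 uM) of each library drug plus a fixed dose of dasatinib (dose not stated) for 5 days; viability read by CellTiter-Glo and normalised to DMSO. GI50 was fitted with XLfit, AUC is the area under the dose-response curve, and minimum viability is the lowest fraction of DMSO viability across doses.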

A498 [2] = assay: as above
Description: as §1

ACHN [3] = assay: as above
Description: as §1

CAKI-1 [4] = assay: as above
Description: as §1

SN12C [5] = assay: as above
Description: as §1

TK-10 [6] = assay: as above
Description: as §1

UO-31 [7] = assay: as above
Description: as §1

769-P [8] = assay: minimum viability across doses, drug + dasatinib, relative to DMSO (fraction); higher = less growth inhibition
Description: as §1

786-O [9] = assay: as above
Description: as §1

A498 [10] = assay: as above
Description: as §1

ACHN [11] = assay: as above
Description: as §1

CAKI-1 [12] = assay: as above
Description: as §1

SN12C [13] = assay: as above
Description: as §1

TK-10 [14] = assay: as above
Description: as §1

UO-31 [15] = assay: as above
Description: as §1

769-P [16] = assay: AUC of dose-response viability curve, drug + dasatinib, normalised to DMSO (arbitrary (AUC of normalised viability)); higher = less growth inhibition
Description: as §1

786-O [17] = assay: as above
Description: as §1

A498 [18] = assay: as above
Description: as §1

ACHN [19] = assay: as above
Description: as §1

CAKI-1 [20] = assay: as above
Description: as §1

SN12C [21] = assay: as above
Description: as §1

TK-10 [22] = assay: as above
Description: as §1

UO-31 [23] = assay: as above
Description: as §1

786-O [24] = assay: GI50 of drug in presence of dasatinib; higher = less potent
Description: as §1

SMILES	GI50 of drug (769-P [1]) [µM]	GI50 of drug (A498 [2]) [µM]	GI50 of drug (ACHN [3]) [µM]	GI50 of drug (CAKI-1 [4]) [µM]	GI50 of drug (SN12C [5]) [µM]	GI50 of drug (TK-10 [6]) [µM]	GI50 of drug (UO-31 [7]) [µM]	minimum viability across doses (769-P [8])	minimum viability across doses (786-O [9])	minimum viability across doses (A498 [10])	minimum viability across doses (ACHN [11])	minimum viability across doses (CAKI-1 [12])	minimum viability across doses (SN12C [13])	minimum viability across doses (TK-10 [14])	minimum viability across doses (UO-31 [15])	AUC of dose-response viability curve (769-P [16])	AUC of dose-response viability curve (786-O [17])	AUC of dose-response viability curve (A498 [18])	AUC of dose-response viability curve (ACHN [19])	AUC of dose-response viability curve (CAKI-1 [20])	AUC of dose-response viability curve (SN12C [21])	AUC of dose-response viability curve (TK-10 [22])	AUC of dose-response viability curve (UO-31 [23])	GI50 of drug (786-O [24]) [µM]
C=CC(=O)N1CCC[C@@H](n2nc(-c3ccc(Oc4ccccc4)cc3)c3c(N)ncnc32)C1 + Cc1nc(Nc2ncc(C(=O)Nc3c(C)cccc3Cl)s2)cc(N2CCN(CCO)CC2)n1 [dasatinib]	0.212	> 10	0.0814	3.28	> 10	0.264	8.83	0.124	0.435	0.927	0.295	0.19	0.496	0.189	0.194	1.72	2	4.62	1.61	2.18	2.28	1.83	3.83	–
Cl.Cl.NC1(c2ccc(-c3nc4ccn5c(=O)[nH]nc5c4cc3-c3ccccc3)cc2)CCC1 [MK-2206 dihydrochloride] + Cc1nc(Nc2ncc(C(=O)Nc3c(C)cccc3Cl)s2)cc(N2CCN(CCO)CC2)n1 [dasatinib]	–	> 10	0.0241	0.111	> 10	1.11	1.74	0.234	0.224	0.755	0.202	0.102	0.551	0.263	0.0262	2.05	2.02	2.94	1.45	1.69	2.18	2.1	2.61	2.41
Cn1c(=O)c(F)c(Nc2ccc(I)cc2F)c2c(=O)n(C[C@@H](O)CO)cnc21 [TAK-733] + Cc1nc(Nc2ncc(C(=O)Nc3c(C)cccc3Cl)s2)cc(N2CCN(CCO)CC2)n1 [dasatinib]	0.192	–	< 0.003	0.0297	0.0825	0.138	0.2	0.201	0.36	0.355	0.222	0.0816	0.192	0.199	0.0313	1.73	1.96	1.92	1.21	1.2	1.51	1.71	1.88	0.452
Cc1cc(C(=O)NOCCO)c(Nc2ccc(I)cc2F)n(C)c1=O [AZD8330] + Cc1nc(Nc2ncc(C(=O)Nc3c(C)cccc3Cl)s2)cc(N2CCN(CCO)CC2)n1 [dasatinib]	0.0694	–	< 0.003	0.0565	0.0601	0.108	–	0.219	0.323	0.318	0.18	0.102	0.212	0.262	0.0965	1.49	1.67	1.77	0.912	1.21	1.5	1.64	1.9	0.0545
CNC(=O)c1cc(Oc2ccc(NC(=O)Nc3ccc(Cl)c(C(F)(F)F)c3)c(F)c2)ccn1 [Regorafenib (BAY 73-4506)] + Cc1nc(Nc2ncc(C(=O)Nc3c(C)cccc3Cl)s2)cc(N2CCN(CCO)CC2)n1 [dasatinib]	4.04	2.67	3.32	2.98	7.18	5.85	4.41	0.37	0.471	0.415	0.153	0.125	0.434	0.415	0.122	2.3	2.26	3.1	2.05	2.24	2.47	2.45	2.77	–
Cn1cnc2c(F)c(Nc3ccc(Br)cc3Cl)c(C(=O)NOCCO)cc21 [AZD6244 (Selumetinib)] + Cc1nc(Nc2ncc(C(=O)Nc3c(C)cccc3Cl)s2)cc(N2CCN(CCO)CC2)n1 [dasatinib]	1.2	–	0.0832	0.646	1.07	3.54	–	0.294	0.507	0.301	0.343	0.129	0.0911	0.477	0.143	2.1	2.26	2.11	1.64	1.77	1.84	2.38	2.32	1.66
O=C1NC(=O)C(c2ccccc2[N+](=O)[O-])=C1Nc1ccc(O)c(Cl)c1 + Cc1nc(Nc2ncc(C(=O)Nc3c(C)cccc3Cl)s2)cc(N2CCN(CCO)CC2)n1 [dasatinib]	> 10	> 10	> 10	> 10	> 10	> 10	> 10	0.629	0.339	0.789	0.506	0.591	0.67	0.646	0.748	2.42	1.73	3.1	2.02	2.31	2.5	2.42	3.6	–
CC(C)(O)CC(=O)NCCn1ccc2ncnc(Nc3ccc(Oc4cccc(C(F)(F)F)c4)c(Cl)c3)c21 [TAK-285] + Cc1nc(Nc2ncc(C(=O)Nc3c(C)cccc3Cl)s2)cc(N2CCN(CCO)CC2)n1 [dasatinib]	1.7	> 10	0.0127	2.35	> 10	0.568	6.24	0.22	0.338	0.83	0.172	0.311	0.556	0.346	0.224	2.18	1.8	3.25	1.28	2.15	2.44	1.99	3.97	–
Cc1cn(-c2cc(NC(=O)c3ccc(C)c(Nc4nccc(-c5cccnc5)n4)c3)cc(C(F)(F)F)c2)cn1 [Nilotinib (AMN-107)] + Cc1nc(Nc2ncc(C(=O)Nc3c(C)cccc3Cl)s2)cc(N2CCN(CCO)CC2)n1 [dasatinib]	–	> 10	2.89	7.79	> 10	> 10	4.88	0.331	0.717	0.811	0.461	0.491	0.687	0.524	0.262	1.98	2.77	3.37	2	2.38	2.55	2.53	3.2	> 10
COc1cc2ncnc(Nc3ccc(F)c(Cl)c3)c2cc1OCCCN1CCOCC1 [Gefitinib (Iressa)] + Cc1nc(Nc2ncc(C(=O)Nc3c(C)cccc3Cl)s2)cc(N2CCN(CCO)CC2)n1 [dasatinib]	–	> 10	0.0857	1.73	> 10	1.07	6.18	0.177	0.56	0.808	0.187	0.169	0.588	0.267	0.3	1.72	2.56	3.49	1.56	2.08	2.49	2.22	2.9	> 10
Cc1ccc(NC(=O)c2cccc(N(C)C)c2)cc1NC(=O)c1ccc(O)cc1 + Cc1nc(Nc2ncc(C(=O)Nc3c(C)cccc3Cl)s2)cc(N2CCN(CCO)CC2)n1 [dasatinib]	> 10	> 10	> 10	> 10	> 10	> 10	> 10	0.639	0.388	0.932	0.54	0.65	0.69	0.609	1.02	2.41	2	3.67	2.1	2.43	2.52	2.37	4.5	–
O=C1NC(=O)/C(=C/c2ccc(-c3ccc(F)cc3O)o2)S1 + Cc1nc(Nc2ncc(C(=O)Nc3c(C)cccc3Cl)s2)cc(N2CCN(CCO)CC2)n1 [dasatinib]	> 10	> 10	> 10	> 10	> 10	> 10	> 10	0.532	0.449	1.06	0.567	0.628	0.651	0.649	1.02	2.41	2.08	3.96	2.15	2.4	2.41	2.51	3.97	–
CNC(=O)CN1CCC(Oc2cc3c(Nc4cccc(Cl)c4F)ncnc3cc2OC)CC1 [AZD8931] + Cc1nc(Nc2ncc(C(=O)Nc3c(C)cccc3Cl)s2)cc(N2CCN(CCO)CC2)n1 [dasatinib]	0.135	1.04	0.0114	2.99	> 10	0.477	4.66	0.15	0.262	0.284	0.233	0.332	0.569	0.277	0.344	1.69	1.88	2.24	1.24	2.11	2.3	1.99	2.96	–
Cc1ccc(NC(=O)c2ccc(CN3CCN(C)CC3)cc2)cc1Nc1nccc(-c2cccnc2)n1 [Imatinib (Gleevec)] + Cc1nc(Nc2ncc(C(=O)Nc3c(C)cccc3Cl)s2)cc(N2CCN(CCO)CC2)n1 [dasatinib]	> 10	> 10	> 10	8.89	> 10	> 10	> 10	0.586	0.336	0.817	0.523	0.491	0.68	0.624	0.883	2.43	1.67	3.24	2.06	2.22	2.55	2.45	3.84	–

Source: the supplement of paper PMC8149375
